Data from the supplement of paper PMC10307832.

Assays:
Experiment in all cases: relative viability (nuclei count vs DMSO), 5 days (fraction); higher = more cells survive
Details in all cases: main component drawn
Bleomycin + Lapatinib = compound: CC1=C(N=C(N=C1N)[C@H](CC(=O)N)NC[C@@H](C(=O)N)N)C(=O)N[C@@H]([C@H](C2=CN=CN2)OC3C(C(C(C(O3)CO)O)O)OC4C(C(C(C(O4)CO)O)OC(=O)N)O)C(=O)N[C@H](C)[C@H]([C@H](C)C(=O)N[C@@H]([C@@H](C)O)C(=O)NCCC5=NC(=CS5)C6=NC(=CS6)C(=O)NCCC[S+](C)C)O [Bleomycin] + CS(=O)(=O)CCNCc1ccc(-c2ccc3ncnc(Nc4ccc(OCc5cccc(F)c5)c(Cl)c4)c3c2)o1 [Lapatinib] (partner 2 µM)
Summary of the method: (§1)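 After 5 days of treatment, lung cancer cells in 1536-well plates were fixed and stained in a single step (final 0.05% Triton X-100, 1% formaldehyde, 1 ug/ml Hoechst) and their nuclei counted on 4× images. Treatment had been applied by pin tool the day after seeding as one drug alone or as a fixed anchor-drug dose with five library-drug doses (not always all listed) in √10 steps. Relative viability is the nuclei count of treated wells divided by that of vehicle wells, and values are medians of duplicate plates.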

Bleomycin + Bortezomib = compound: CC1=C(N=C(N=C1N)[C@H](CC(=O)N)NC[C@@H](C(=O)N)N)C(=O)N[C@@H]([C@H](C2=CN=CN2)OC3C(C(C(C(O3)CO)O)O)OC4C(C(C(C(O4)CO)O)OC(=O)N)O)C(=O)N[C@H](C)[C@H]([C@H](C)C(=O)N[C@@H]([C@@H](C)O)C(=O)NCCC5=NC(=CS5)C6=NC(=CS6)C(=O)NCCC[S+](C)C)O [Bleomycin] + CC(C)C[C@H](NC(=O)[C@H](Cc1ccccc1)NC(=O)c1cnccn1)B(O)O [Bortezomib] (partner 0.002 µM)
Summary of the method: as §1

Bleomycin + Olaparib = compound: CC1=C(N=C(N=C1N)[C@H](CC(=O)N)NC[C@@H](C(=O)N)N)C(=O)N[C@@H]([C@H](C2=CN=CN2)OC3C(C(C(C(O3)CO)O)O)OC4C(C(C(C(O4)CO)O)OC(=O)N)O)C(=O)N[C@H](C)[C@H]([C@H](C)C(=O)N[C@@H]([C@@H](C)O)C(=O)NCCC5=NC(=CS5)C6=NC(=CS6)C(=O)NCCC[S+](C)C)O [Bleomycin] + O=C(c1cc(Cc2n[nH]c(=O)c3ccccc23)ccc1F)N1CCN(C(=O)C2CC2)CC1 [Olaparib] (partner 8 µM)
Summary of the method: as §1

Bleomycin + Tozasertib = compound: CC1=C(N=C(N=C1N)[C@H](CC(=O)N)NC[C@@H](C(=O)N)N)C(=O)N[C@@H]([C@H](C2=CN=CN2)OC3C(C(C(C(O3)CO)O)O)OC4C(C(C(C(O4)CO)O)OC(=O)N)O)C(=O)N[C@H](C)[C@H]([C@H](C)C(=O)N[C@@H]([C@@H](C)O)C(=O)NCCC5=NC(=CS5)C6=NC(=CS6)C(=O)NCCC[S+](C)C)O [Bleomycin] + Cc1cc(Nc2cc(N3CCN(C)CC3)nc(Sc3ccc(NC(=O)C4CC4)cc3)n2)n[nH]1 [Tozasertib] (partner 0.1 µM)
Summary of the method: as §1

Row | Cell Line | relative viability (Bleomycin + Lapatinib; first compound 0.03162 µM) | relative viability (Bleomycin + Lapatinib; first compound 0.1 µM) | relative viability (Bleomycin + Lapatinib; first compound 0.3162 µM) | relative viability (Bleomycin + Lapatinib; first compound 1 µM) | relative viability (Bleomycin + Bortezomib; first compound 0.03162 µM) | relative viability (Bleomycin + Bortezomib; first compound 0.1 µM) | relative viability (Bleomycin + Bortezomib; first compound 0.3162 µM) | relative viability (Bleomycin + Bortezomib; first compound 1 µM) | relative viability (Bleomycin + Olaparib; first compound 0.01 µM) | relative viability (Bleomycin + Olaparib; first compound 0.03162 µM) | relative viability (Bleomycin + Olaparib; first compound 0.1 µM) | relative viability (Bleomycin + Olaparib; first compound 0.3162 µM) | relative viability (Bleomycin + Olaparib; first compound 1 µM) | relative viability (Bleomycin + Tozasertib; first compound 0.01 µM) | relative viability (Bleomycin + Tozasertib; first compound 0.03162 µM) | relative viability (Bleomycin + Tozasertib; first compound 0.1 µM) | relative viability (Bleomycin + Tozasertib; first compound 0.3162 µM) | relative viability (Bleomycin + Tozasertib; first compound 1 µM) | relative viability (Bleomycin + Lapatinib; first compound 0.01 µM) | relative viability (Bleomycin + Bortezomib; first compound 0.01 µM)
1 | CAL-12T | 0.557 | 0.454 | 0.218 | 0.21 | 0.87 | 0.692 | 0.293 | 0.28 | 0.416 | 0.375 | 0.217 | 0.177 | 0.135 | 0.23 | 0.249 | 0.179 | 0.179 | 0.208 |  | 
2 | NCI-H2170 | 0.262 | 0.259 | 0.231 | 0.21 |  |  |  |  | 0.508 | 0.523 | 0.397 | 0.361 | 0.3 | 0.627 | 0.826 | 0.735 | 0.549 | 0.372 | 0.303 | 
3 | NCI-H1299 | 0.985 | 0.772 | 0.431 | 0.382 | 0.994 | 0.95 | 0.435 | 0.412 | 0.819 | 0.904 | 0.681 | 0.346 | 0.252 |  |  |  |  |  | 0.926 | 0.963
4 | EBC-1 | 0.215 | 0.199 | 0.206 | 0.196 | 0.422 | 0.469 | 0.307 | 0.233 | 0.604 | 0.671 | 0.645 | 0.419 | 0.331 |  |  |  |  |  | 0.217 | 0.474
5 | NCI-H441 |  |  |  |  | 0.886 | 0.458 | 0.226 | 0.211 | 0.539 | 0.505 | 0.399 | 0.338 | 0.226 | 0.53 | 0.611 | 0.471 | 0.332 | 0.275 |  | 
6 | NCI-H2342 |  |  |  |  |  |  |  |  | 0.377 | 0.4 | 0.416 | 0.319 | 0.362 | 0.537 | 0.522 | 0.493 | 0.432 | 0.445 |  | 
7 | NCI-H1792 | 0.798 | 0.841 | 0.326 | 0.139 | 0.958 | 0.663 | 0.323 | 0.283 | 0.34 | 0.447 | 0.487 | 0.183 | 0.11 |  |  |  |  |  | 0.848 | 0.871
8 | ChaGo-K-1 |  |  |  |  | 1.01 | 0.768 | 0.393 | 0.306 | 0.361 | 0.411 | 0.348 | 0.28 | 0.229 | 0.221 | 0.214 | 0.23 | 0.164 | 0.192 |  | 
9 | LK-2 | 0.488 | 0.542 | 0.261 | 0.248 |  |  |  |  | 0.369 | 0.451 | 0.279 | 0.163 | 0.165 | 0.178 | 0.159 | 0.179 | 0.179 | 0.177 | 0.66 | 
10 | NCI-H1944 | 0.41 | 0.355 | 0.242 | 0.151 |  |  |  |  | 0.259 | 0.252 | 0.264 | 0.18 | 0.151 | 0.196 | 0.197 | 0.187 | 0.147 | 0.12 | 0.533 | 
11 | NCI-H1793 | 0.567 | 0.544 | 0.275 | 0.219 |  |  |  |  | 0.845 | 0.675 | 0.589 | 0.191 | 0.195 | 0.339 | 0.308 | 0.362 | 0.191 | 0.171 | 0.729 | 
12 | A549 | 0.634 | 0.38 | 0.0818 | 0.0645 |  |  |  |  | 0.25 | 0.263 | 0.29 | 0.0728 | 0.0649 |  |  |  |  |  | 0.695 | 
13 | NCI-H358 | 0.466 | 0.354 | 0.256 | 0.254 |  |  |  |  | 0.475 | 0.713 | 0.657 | 0.294 | 0.227 | 0.103 | 0.101 | 0.0984 | 0.106 | 0.11 | 0.381 | 
14 | NCI-H1563 | 0.76 | 0.705 | 0.611 | 0.52 | 0.767 | 0.689 | 0.536 | 0.531 |  |  |  |  |  |  |  |  |  |  | 0.698 | 0.755
15 | NCI-H1395 | 0.841 | 0.711 | 0.417 | 0.397 |  |  |  |  | 0.434 | 0.448 | 0.406 | 0.35 | 0.377 | 0.646 | 0.695 | 0.619 | 0.407 | 0.404 | 0.965 | 
16 | SW 900 |  |  |  |  |  |  |  |  | 0.577 | 0.615 | 0.442 | 0.218 | 0.206 | 0.507 | 0.467 | 0.341 | 0.208 | 0.174 |  | 
17 | IA-LM | 0.7 | 0.623 | 0.274 | 0.336 | 0.746 | 0.676 | 0.339 | 0.269 | 0.681 | 0.629 | 0.716 | 0.474 | 0.328 |  |  |  |  |  | 0.476 | 0.493
18 | NCI-H1703 | 1 | 0.807 | 0.287 | 0.281 | 0.276 | 0.245 | 0.134 | 0.125 | 0.55 | 0.508 | 0.289 | 0.309 | 0.166 |  |  |  |  |  | 1.01 | 0.328
19 | LCLC-103H |  |  |  |  | 1.12 | 1.1 | 0.556 | 0.467 | 0.717 | 0.735 | 0.724 | 0.56 | 0.384 | 0.427 | 0.479 | 0.476 | 0.279 | 0.234 |  | 1.07
20 | NCI-H1648 |  |  |  |  |  |  |  |  | 0.757 | 0.571 | 0.443 | 0.267 | 0.357 | 0.383 |  | 0.401 | 0.405 | 0.379 |  | 
